Data taken from US20240365782A1, “USE OF 2-AMINO-3-METHYLHEXANOIC ACID IN PROMOTING PLANT GROWTH AND INCREASING YIELD” (NANJING AGRICULTURAL UNIVERSITY, priority 2021, published 2024).

Columns and labels:
rice seedlings = assay: Soaking seeds: effect on growth of rice seedlings; assay type: in vivo; conditions: for Chlorophyll content: rice leaves; for Chlorophyll content improved compared with the blank control / Plant height improved compared with the blank control / Root fresh weight / Root fresh weight improved compared with the blank control / Root length / Root length improved compared with the blank control / Plant height: rice seedlings; for Plant height: 3 leaves and 1 heart stage
Experimental: Rice seeds (variety “Dengliangyou 2108”) were washed clean with distilled water, disinfected with 75% alcohol for 3 minutes, washed with the distilled water for 3 times, and then disinfected with NaClO (5%) for about 10 minutes, taken out, and washed with the distilled water. Residual water on the surfaces of the seeds was absorbed with clean filter paper until the surfaces were dry and clean. 50 g of the healthy, full and uniform seeds were picked and placed in 100-mL conical flasks. 50 mL of a 2-amino-3-methylhexanoic acid aqueous solution with the concentrations of 0 nM, 10 nM, 100 nM and 1,000 nM was added into each bottle respectively, the seeds were soaked for 5 days at room temperature and taken out, 100 rice seeds to be tested with a consistent germination state were respectively selected, uniformly sowed in a rice seedling tray, and covered with sterile nutrient soil, the seedling tray was placed in a culture room at 28° C., and when 3 leaves and 1 heart of the rice seedlings were grown, the plant height, the root length, the root fresh weight and the overground part fresh weight of the rice seedlings were respectively measured.
(§1) 0.1 g of the rice leaves were accurately cut off for measuring the chlorophyll content. The rice leaves were extracted with 10 mL of an acetone ethanol extracting solution (80% acetone: 95% ethanol at a volume ratio of 1:1) for 24 hours in a dark place. A chlorophyll extracting stock solution was diluted by 3 times with the extracting solution as a reference solution, the light density values at wave lengths of 645 nm and 663 nm were measured with a spectrophotometer, and the chlorophyll content was calculated with a modifier formula of an Amnon method.
In the formula, Ch1a, Ch1b and Ch1t are the concentrations (mg/g·FW) of chlorophyll a, chlorophyll b and total chlorophyll, respectively; n is the dilution ratio; v is the volume of the extracting solution (L); m is the mass (g) of the leaves; and A663 and A645 are absorbance values of 663 nm and 645 nm, respectively.

cucumber seedlings = assay: Hydroponic treatment: rooting of radicle-removed cucumber seedlings; assay type: in vivo; conditions: for Lateral root number / Root length: cucumber seedlings, 6 days
Source text: To further investigate a promoting effect of 2-amino-3-methylhexanoic acid on growth of plant roots, a model system for studying root generation, a radicle-removed cucumber seedling system, was selected. Four layers of wet gauze were spread on a bottom part of a seedling box, and healthy, full and uniform cucumber seeds (variety “Chuxiaqiuguan”, Ningyang County Luming Seed Co., Ltd., Shandong Province) were picked, washed with distilled water, uniformly spread on the gauze, and then covered with four layers of the wet gauze for keeping in a dark place. After kept in a dark place in a 25° C. culture room for 24 hours, the germinated cucumber seeds were taken out and buried in a position 1 cm below the soil, a plurality of plants with consistent growth vigor and completely unfolded two cotyledons were taken after 3 days, the roots were washed with the distilled water, the radicles were cut off, and the plants were fixed with sponge strips and placed in a centrifuge tube box. 400 mL of a 2-amino-3-methylhexanoic acid aqueous solution at concentrations of 0, 10, 100, and 1,000 nM, respectively was added to each box. The hydroponic plants were placed in the 25° C. culture room. After 6 days of light culture, the plants were taken out and the root length and number of newly generated roots were measured and recorded.

strawberry seedlings = assay: Stem and leaf treatment: growth of strawberry seedlings; assay type: in vivo
Experimental: (§2) In 2021, an experiment was conducted in a Changshanxiang Mingyang family farm (standard greenhouse nursery base) in Zhangjiagang city, Jiangsu province. A strawberry variety to be tested was Hongyan, a tomato variety was Qianxi, and a hot pepper variety was Sujiao No. 5. 2-amino-3-methylhexanoic acid was taken, dissolved with distilled water, and diluted with the distilled water to obtain a solution of 100 nM (14.5 μg/L), a blank control was additionally set, and 0.02% Tween 20 as a surfactant and 14-hydroxylated brassinosteroid (Sichuan New Sun company) with the concentration of 37.5 μg/L as a control agent were added at the same time. Each treatment was repeated three times, the plot area was 20 m^2, and the liquid injection volume per plot was 1 L. The treatment method was foliage spray, an investigation was conducted on day 9 after the application, and the results were shown in Tables 3-5 and FIG. 3-FIG. 5.

tomato seedlings = assay: Stem and leaf treatment: growth of tomato seedlings; assay type: in vivo
Experimental: as §2

hot pepper seedlings = assay: Stem and leaf treatment: growth of hot pepper seedlings; assay type: in vivo
Experimental: as §2

strawberry plants = assay: Stem and leaf treatment: growth and yield of mature strawberry plants (field application); assay type: in vivo; conditions: for Leaf number / Leaf width / Plant height: mature strawberry plants; for Mass of fruits per plant / Number of fruits per plant: strawberries; for Chlorophyll content: strawberry leaves
Experimental: as §1
On Feb. 27, 2021, an experiment was conducted in a greenhouse of a farm of Baitu town, Jurong city, Jiangsu province, and the strawberry variety to be tested was Hongyan. The 2-amino-3-methylhexanoic acid was taken, dissolved with distilled water, and gradiently diluted with the distilled water to obtain solutions of 1,000 nM and 100 nM, a blank control was additionally set, and 0.02% Tween 20 as a surfactant was added at the same time. Each treatment was repeated three times, the plot area was 100 m^2, and the liquid injection volume per plot was 4.5 L. Three times of field application were conducted on February 27, March 3, and Mar. 8, 2021, respectively. The treatment method was foliage spray. The plant height, the leaf number, the leaf width, the number of fruits per plant, and the mass of fruits per plant were investigated on March 8. 0.2 g of strawberry leaves were cut off at the same time for measuring the chlorophyll content.

Bacillus subtilis = conditions: cited from earlier work
Escherichia coli K-12 = conditions: cited from earlier work
Achromobacter butyri = conditions: cited from earlier work
A. ureafaciens = conditions: cited from earlier work
E. coli B = conditions: cited from earlier work
Pseudomonas aeruginosa = conditions: cited from earlier work
Aerobacter aerogenes = conditions: cited from earlier work
Brevibacterium helvolum = conditions: cited from earlier work
P. fluorescens = conditions: cited from earlier work
S. marcescens = conditions: cited from earlier work
[1] = foliage spray, day 9, 2-amino-3-methylhexanoic acid 100 nM, 14-hydroxylated brassinosteroid 37.5 μg/L
[2] = foliage spray, day 9, 2-amino-3-methylhexanoic acid 14.5 μg/L (100 nM), 14-hydroxylated brassinosteroid 37.5 μg/L
[3] = mature strawberry plants, 1,000 nM

Structure (SMILES): CCCC(C)C(N)C(=O)O (stereo not shown) [2-amino-3-methylhexanoic acid]
- Chlorophyll content (rice seedlings; seed soaking 10 nM): 3.60 ± 0.055b mg/g · FW
- Chlorophyll content (rice seedlings; seed soaking 100 nM): 3.82 ± 0.079a mg/g · FW
- Chlorophyll content (rice seedlings; seed soaking 1,000 nM): 3.63 ± 0.013b mg/g · FW
- Chlorophyll content improved compared with the blank control (rice seedlings; seed soaking 10 nM): 31%
- Plant height improved compared with the blank control (rice seedlings; seed soaking 10 nM): 9%
- Root fresh weight (rice seedlings; seed soaking 10 nM): 0.039 ± 0.002c g
- Root fresh weight improved compared with the blank control (rice seedlings; seed soaking 10 nM): 18%
- Root length (rice seedlings; seed soaking 10 nM): 8.34 ± 0.53b cm
- Root length improved compared with the blank control (rice seedlings; seed soaking 10 nM): 14%
- Plant height (rice seedlings; seed soaking 10 nM): 25.24 ± 0.82b cm
- Chlorophyll content improved compared with the blank control (rice seedlings; seed soaking 100 nM): 39%
- Plant height improved compared with the blank control (rice seedlings; seed soaking 100 nM): 29%
- Root fresh weight (rice seedlings; seed soaking 100 nM): 0.069 ± 0.007a g
- Root fresh weight improved compared with the blank control (rice seedlings; seed soaking 100 nM): 109%
- Root length (rice seedlings; seed soaking 100 nM): 9.30 ± 0.26a cm
- Root length improved compared with the blank control (rice seedlings; seed soaking 100 nM): 27%
- Plant height (rice seedlings; seed soaking 100 nM): 29.88 ± 0.16a cm
- Chlorophyll content improved compared with the blank control (rice seedlings; seed soaking 1,000 nM): 32%
- Plant height improved compared with the blank control (rice seedlings; seed soaking 1,000 nM): 13%
- Root fresh weight (rice seedlings; seed soaking 1,000 nM): 0.052 ± 0.003b g
- Root fresh weight improved compared with the blank control (rice seedlings; seed soaking 1,000 nM): 58%
- Root length (rice seedlings; seed soaking 1,000 nM): 8.30 ± 0.17b cm
- Root length improved compared with the blank control (rice seedlings; seed soaking 1,000 nM): 14%
- Plant height (rice seedlings; seed soaking 1,000 nM): 26.20 ± 0.32b cm
- Lateral root number (cucumber seedlings; hydroponic 10 nM): 16.00 ± 1.73a piece
- Root length (cucumber seedlings; hydroponic 10 nM): 2.04 ± 0.67b cm
- Lateral root number (cucumber seedlings; hydroponic 100 nM): 19.33 ± 1.53a piece
- Root length (cucumber seedlings; hydroponic 100 nM): 5.36 ± 0.82a cm
- Lateral root number (cucumber seedlings; hydroponic 1,000 nM): 14.33 ± 5.13a piece
- Root length (cucumber seedlings; hydroponic 1,000 nM): 4.50 ± 1.28a cm
- Cucumber root length improved compared with the blank control (cucumber seedlings; hydroponic 10 nM): 33%
- Number of root generation improved compared with the blank control (cucumber seedlings; hydroponic 10 nM): 182%
- Cucumber root length improved compared with the blank control (cucumber seedlings; hydroponic 100 nM): 199%
- Number of root generation (lateral root number) improved compared with the blank control (cucumber seedlings; hydroponic 100 nM): 241%
- Cucumber root length improved compared with the blank control (cucumber seedlings; hydroponic 1,000 nM): 154%
- Number of root generation improved compared with the blank control (cucumber seedlings; hydroponic 1,000 nM): 153%
- Plant height improved compared with 14-hydroxylated brassinosteroid 37.5 μg/L (strawberry seedlings; 14.5 μg/L): 7%
- Plant height improved compared with the blank control (strawberry seedlings; 14.5 μg/L): 31%
- Root fresh weight improved compared with 14-hydroxylated brassinosteroid 37.5 μg/L (strawberry seedlings; 14.5 μg/L): 65%
- Root fresh weight improved compared with the blank control (strawberry seedlings; 14.5 μg/L): 70%
- Root length improved compared with 14-hydroxylated brassinosteroid 37.5 μg/L (strawberry seedlings; 14.5 μg/L): 24%
- Root length improved compared with the blank control (strawberry seedlings; 14.5 μg/L): 23%
- Plant height (strawberry seedlings; [1]): 7.00 ± 0.37a cm
- Root fresh weight (strawberry seedlings; [1]): 8.49 ± 0.12a g
- Root length (strawberry seedlings; [1]): 5.79 ± 0.36a cm
- Plant height improved compared with 14-hydroxylated brassinosteroid 37.5 μg/L (tomato seedlings; 14.5 μg/L): 76%
- Plant height improved compared with the blank control (tomato seedlings; 14.5 μg/L): 84%
- Root fresh weight improved compared with 14-hydroxylated brassinosteroid 37.5 μg/L (tomato seedlings; 14.5 μg/L): 16%
- Root fresh weight improved compared with the blank control (tomato seedlings; 14.5 μg/L): 232%
- Root length improved compared with 14-hydroxylated brassinosteroid 37.5 μg/L (tomato seedlings; 14.5 μg/L): 18%
- Root length improved compared with the blank control (tomato seedlings; 14.5 μg/L): 38%
- Plant height (tomato seedlings; [2]): 20.80 ± 0.21a cm
- Root fresh weight (tomato seedlings; [2]): 4.05 ± 0.07a g
- Root length (tomato seedlings; [2]): 5.39 ± 0.43a cm
- Plant height improved compared with 14-hydroxylated brassinosteroid 37.5 μg/L (hot pepper seedlings; 14.5 μg/L): 37%
- Plant height improved compared with the blank control (hot pepper seedlings; 14.5 μg/L): 60%
- Root fresh weight improved compared with 14-hydroxylated brassinosteroid 37.5 μg/L (hot pepper seedlings; 14.5 μg/L): 35%
- Root fresh weight improved compared with the blank control (hot pepper seedlings; 14.5 μg/L): 49%
- Root length improved compared with 14-hydroxylated brassinosteroid 37.5 μg/L (hot pepper seedlings; 14.5 μg/L): 7%
- Root length improved compared with the blank control (hot pepper seedlings; 14.5 μg/L): 46%
- Plant height (hot pepper seedlings; [2]): 9.32 ± 0.32a cm
- Root fresh weight (hot pepper seedlings; [2]): 4.67 ± 0.09a g
- Root length (hot pepper seedlings; [2]): 4.53 ± 0.33a cm
- Chlorophyll content improved compared with the blank control (strawberry plants; [3]): 21%
- Leaf number improved compared with the blank control (strawberry plants; [3]): 79%
- Leaf width improved compared with the blank control (strawberry plants; [3]): 32%
- Plant height improved compared with the blank control (strawberry plants; [3]): 49%
- Leaf number (strawberry plants; foliage spray 100 nM): 22.44 ± 4.32b leaf
- Leaf width (strawberry plants; foliage spray 100 nM): 5.33 ± 0.48b cm
- Plant height (strawberry plants; foliage spray 100 nM): 26.50 ± 3.60b cm
- Leaf number (strawberry plants; foliage spray 1,000 nM): 26.00 ± 4.76a leaf
- Leaf width (strawberry plants; foliage spray 1,000 nM): 6.59 ± 1.07a cm
- Plant height (strawberry plants; foliage spray 1,000 nM): 36.60 ± 3.28a cm
- Mass of fruits per plant (strawberry plants; foliage spray 100 nM): 29.06 ± 0.76b g
- Number of fruits per plant (strawberry plants; foliage spray 100 nM): 8.32 ± 0.47b fruit
- Mass of fruits per plant (strawberry plants; foliage spray 1,000 nM): 34.47 ± 0.58a g
- Number of fruits per plant (strawberry plants; foliage spray 1,000 nM): 9.72 ± 0.43a fruit
- Chlorophyll content (strawberry plants; foliage spray 100 nM): 3.50 ± 0.30ab mg/g · FW
- Chlorophyll content (strawberry plants; foliage spray 1,000 nM): 3.74 ± 0.65a mg/g · FW
- Mass of fruits per plant improved compared to the blank control (strawberry plants; strawberry plants, 1,000 nM): 44%
- Number of fruits per plant improved compared to the blank control (strawberry plants; strawberry plants, 1,000 nM): 39%
- Inhibitory effect (Bacillus subtilis): remarkable inhibitory effect
- Inhibitory effect (Escherichia coli K-12): remarkable inhibitory effect
- Inhibitory effect (Achromobacter butyri): slight inhibitory effect
- Inhibitory effect (A. ureafaciens): slight inhibitory effect
- Inhibitory effect (E. coli B): slight inhibitory effect
- Inhibitory effect (Pseudomonas aeruginosa): slight inhibitory effect
- Inhibitory effect (Aerobacter aerogenes): no inhibitory effect
- Inhibitory effect (Brevibacterium helvolum): no inhibitory effect
- Inhibitory effect (P. fluorescens): no inhibitory effect
- Inhibitory effect (S. marcescens): no inhibitory effect
